Experimental data as given in patent US11345676B2, “Apoptosis signal-regulating kinase 1 (ASK 1) inhibitor compounds” (PHARMAKEA, INC., priority 2017, dated 2022).
Where a name gives a salt, the structure may show the parent alone.

What was measured:
human LOXL2 = human LOXL2 (Homo sapiens (Human), UniProt Q9Y4K0); experiment: Human LOXL2 amine oxidase activity assay (Amplex Red); type: biochemical; conditions: concentrated conditioned media from CHO cells expressing human LOXL2, 2 h preincubation at 37° C., DAP substrate
Method: Example B-2: Human LOXL2 Amine Oxidase Activity Assay
LOXL2 amine oxidase activity was evaluated by measuring Amplex Red fluorescence using 10-20× concentrated conditioned media from CHO cells stably expressing human LOXL2. To assay for amine oxidase activity, 10 μL of the concentrated conditioned media was incubated with 2 μL of test compound in DMSO and 73 μL Assay Buffer (50 mM Borate Buffer, pH8) for 2 h at 37° C. After the 2 h incubation, 5 μL of 10 mM 1,5-Diaminopentane (DAP) diluted in Assay Buffer and 10 μL of Amplex Red Mix (8.5 μL Assay Buffer+0.5 μL of 10 mM Amplex Red+1 μL of 500 U/ml Horseradish Peroxidase) were added and the plate mixed and immediately placed on the FlexStation for fluorescence measurements. Fluorescence was read in kinetic mode every 2 min for 0.5-1 hour at excitation=544 and emission=590. The amine oxidase activity was calculated from the slope of the linear portion of the curve. Wells containing vehicle (DMSO) represented maximum activity and were set to 0% inhibition and wells containing 100 μM βAPN (3-aminopropionitrile) represented no activity and were set to 100% inhibition.

ASK1 = ASK1 (Homo sapiens (Human), UniProt Q99683); experiment: Human ASK1 ADP-Glo kinase assay; type: biochemical; conditions: recombinant ASK1 (amino acids 649-946), 50 μM ATP, MBP substrate
Method: Example B-1: Human ASK1 ADP-Glo Assay
The ability of test compounds to inhibit ASK1 kinase activity was determined using the luminescent ADP-Glo™ Kinase Assay and Myelin Basic Protein (MBP) as a substrate (Promega Corporation, Madison, Wis.). During the kinase reaction, ASK1 utilizes ATP and generates ADP. The remaining ATP is then depleted by addition of the ADP-Glo™ reagent which also terminates the reaction. Subsequent addition of the Kinase Detection Reagent converts the ADP that was produced during the kinase reaction to ATP, and this newly synthesized ATP is converted to light using the luciferase/luciferin reactions. The assay was performed according to the manufacturer's instructions. Briefly, purified, recombinant ASK1 (amino acids 649-946) (10-20 ng/well) was added to a 384-well, F bottom, small volume, HIbase, white plate (Greiner Bio-One, Monroe, N.C. #784075) containing 1-2 μL 5× test compound or vehicle control (diluted 1:20 from a 100% DMSO stock solution into 1× Reaction Buffer A). The enzyme was allowed to pre-incubate with test compound from 15-120 min at 30° C. before the addition of the ATP/substrate mix (final concentrations of 50 μM ATP+250 ng MBP in 1× Reaction Buffer A). The mixture was then incubated at room temperature for 40 min before the addition of ADP-Glo™ reagent and a second 40 minute room temperature incubation. Following the addition of the Kinase Detection Reagent, the plate was incubated for an additional 40 min at room temperature before reading luminescence on a FlexStation 3 (Molecular Devices, Sunnyvale, Calif.). Maximum activity was determined from wells treated with vehicle and was set to 100% and minimum activity was determined from wells containing no enzyme and this was set to 0%. Percent inhibition was calculated relative to the controls and the data graphed in Collaborative Drug Discovery (CDD) Vault (Burlingame, Calif.).

human LOXL2, sequence (Q9Y4K0 26-774): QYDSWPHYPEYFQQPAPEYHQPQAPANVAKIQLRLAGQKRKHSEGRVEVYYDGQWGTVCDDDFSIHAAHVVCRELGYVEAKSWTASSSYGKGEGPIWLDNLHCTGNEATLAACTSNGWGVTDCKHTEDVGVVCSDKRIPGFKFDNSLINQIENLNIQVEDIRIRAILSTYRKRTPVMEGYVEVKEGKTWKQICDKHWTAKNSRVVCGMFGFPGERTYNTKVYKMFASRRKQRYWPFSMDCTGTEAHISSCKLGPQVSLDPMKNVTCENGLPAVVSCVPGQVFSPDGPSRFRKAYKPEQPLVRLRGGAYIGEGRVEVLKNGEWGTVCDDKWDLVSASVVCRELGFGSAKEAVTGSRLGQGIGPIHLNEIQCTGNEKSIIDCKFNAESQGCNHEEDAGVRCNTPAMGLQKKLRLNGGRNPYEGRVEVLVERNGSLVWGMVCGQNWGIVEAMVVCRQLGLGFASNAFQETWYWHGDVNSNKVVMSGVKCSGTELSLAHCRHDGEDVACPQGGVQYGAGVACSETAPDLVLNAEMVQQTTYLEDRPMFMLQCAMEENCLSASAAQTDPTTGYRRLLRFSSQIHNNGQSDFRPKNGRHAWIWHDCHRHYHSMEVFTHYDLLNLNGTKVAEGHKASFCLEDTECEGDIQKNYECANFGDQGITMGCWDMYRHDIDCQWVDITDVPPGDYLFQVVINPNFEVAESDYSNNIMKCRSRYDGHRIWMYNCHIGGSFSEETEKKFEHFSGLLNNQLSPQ
ASK1, sequence (Q99683 649-946): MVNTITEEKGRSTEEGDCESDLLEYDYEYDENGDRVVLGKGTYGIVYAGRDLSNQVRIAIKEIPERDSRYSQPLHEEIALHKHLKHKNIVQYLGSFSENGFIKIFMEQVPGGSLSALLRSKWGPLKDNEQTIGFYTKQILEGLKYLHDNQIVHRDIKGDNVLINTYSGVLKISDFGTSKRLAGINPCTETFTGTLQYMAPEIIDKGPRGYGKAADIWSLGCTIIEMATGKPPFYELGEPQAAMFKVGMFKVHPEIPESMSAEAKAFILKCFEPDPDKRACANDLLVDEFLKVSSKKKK

Structure (SMILES) | IC50 (human LOXL2) | IC50 (ASK1)
NCc1cc(Oc2ccnc(C(=O)Nc3cccc(-c4nncn4C4CC4)n3)c2)nc(C(F)(F)F)c1 [Compound 1-330, 4-((4-(Aminomethyl)-6-(trifluoromethyl)pyridin-2-yl)oxy)-N-(6-(4-cyclopropyl-4H-1,2,4-triazol-3-yl)pyridin-2-yl)picolinamide hydrochloride] | < 300 nM | < 300 nM
CC(C)n1cnnc1-c1cccc(NC(=O)c2cccc(OCc3ccccc3)c2)n1 [Compound 1-179, 3-(Benzyloxy)-N-(6-(4-isopropyl-4H-1,2,4-triazol-3-yl)pyridin-2-yl)benzamide] |  | < 300 nM
CC(C)n1cnnc1-c1cccc(NC(=O)c2cc(NC(=O)c3ccc(CN)cc3)ccc2F)n1 [Compound 1-306, 5-(4-(Aminomethyl)benzamido)-2-fluoro-N-(6-(4-isopropyl-4H-1,2,4-triazol-3-yl)pyridin-2-yl)benzamide hydrochloride] | > 1000 nM | < 300 nM
CC(C)n1cnnc1-c1cccc(NC(=O)c2cc(NC(=O)Cc3ccccc3)ccc2F)n1 [Compound 1-333, 2-Fluoro-N-(6-(4-isopropyl-4H-1,2,4-triazol-3-yl)pyridin-2-yl)-5-(2-phenylacetamido)benzamide trifluoroacetate] |  | < 300 nM
CC(C)n1cnnc1-c1cccc(NC(=O)c2cc(NC(=O)c3cc(CN)ccn3)ccc2F)n1 [Compound 1-332, 4-(Aminomethyl)-N-(4-fluoro-3-((6-(4-isopropyl-4H-1,2,4-triazol-3-yl)pyridin-2-yl)carbamoyl)phenyl)picolinamide hydrochloride] |  | < 300 nM

The next lines start with the values.

IC50 (human LOXL2) | IC50 (ASK1) | Structure (SMILES)
< 300 nM | < 300 nM | CC(C)n1cnnc1-c1cccc(NC(=O)c2cccc(Oc3cc(CN)cc(C(F)(F)F)n3)c2)n1 [Compound 1-331, 3-((4-(Aminomethyl)-6-(trifluoromethyl)pyridin-2-yl)oxy)-N-(6-(4-isopropyl-4H-1,2,4-triazol-3-yl)pyridin-2-yl)benzamide hydrochloride]
 | < 300 nM | CC(C)n1cnnc1-c1cccc(NC(=O)c2cc(NC(=O)c3cccnc3)ccc2F)n1 [Compound 1-308, N-(4-Fluoro-3-((6-(4-isopropyl-4H-1,2,4-triazol-3-yl)pyridin-2-yl)carbamoyl)phenyl)nicotinamide hydrochloride]
 | < 300 nM | CC(C)n1cnnc1-c1cccc(NC(=O)c2cc(NC(=O)c3ccncc3)ccc2F)n1 [Compound 1-309, N-(4-Fluoro-3-((6-(4-isopropyl-4H-1,2,4-triazol-3-yl)pyridin-2-yl)carbamoyl)phenyl)isonicotinamide dihydrochloride]
 | < 300 nM | CC(C)n1cnnc1-c1cccc(NC(=O)c2cc(Oc3cccc(C4CC4)n3)ccc2F)n1 [Compound 1-213, 5-((6-Cyclopropylpyridin-2-yl)oxy)-2-fluoro-N-(6-(4-isopropyl-4H-1,2,4-triazol-3-yl)pyridin-2-yl)benzamide trifluoroacetate]
